Bounds are passed on as bounds.

In this test the target is T1, SUMO-activating enzyme subunit 2 (Human, UniProt Q9UBT2).
T1 sequence (Q9UBT2 whole entry): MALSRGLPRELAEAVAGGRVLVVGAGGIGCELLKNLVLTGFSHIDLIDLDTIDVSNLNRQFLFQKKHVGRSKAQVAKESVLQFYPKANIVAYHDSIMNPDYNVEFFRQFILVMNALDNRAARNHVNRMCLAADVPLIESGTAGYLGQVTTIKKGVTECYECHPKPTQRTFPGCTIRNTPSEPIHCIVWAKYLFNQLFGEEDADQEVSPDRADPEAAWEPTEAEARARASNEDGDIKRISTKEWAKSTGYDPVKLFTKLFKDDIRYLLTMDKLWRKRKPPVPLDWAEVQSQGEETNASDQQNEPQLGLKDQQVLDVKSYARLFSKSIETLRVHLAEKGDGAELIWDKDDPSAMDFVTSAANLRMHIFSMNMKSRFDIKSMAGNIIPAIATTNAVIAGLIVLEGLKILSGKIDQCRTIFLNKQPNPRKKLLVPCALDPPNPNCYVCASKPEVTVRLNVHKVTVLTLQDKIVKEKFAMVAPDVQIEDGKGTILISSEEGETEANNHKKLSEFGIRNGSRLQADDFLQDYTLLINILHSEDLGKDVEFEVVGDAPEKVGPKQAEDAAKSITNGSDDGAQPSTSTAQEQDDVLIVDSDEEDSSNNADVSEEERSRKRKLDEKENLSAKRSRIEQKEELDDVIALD
The experiment in a line: Enzyme Assay. How it is done: After incubation for 2 hours at 24° C., quantification of FRET is performed on the Pherostar (BMG Labtech). Percentage inhibition values at a single concentration or enzyme inhibition (IC50) values are determined from those curves. One skilled in the art will appreciate that the values generated either as percentage inhibition at a single concentration or IC50 values are subject to experimental variation.
In the case of `NS(=O)(=O)OC[C@H]1C[C@@H](Nc2ncncc2C(=O)c2cc(Cc3cccc(Br)n3)c(Cl)s2)C[C@@H]1O` [US10780090, Compound I-46], the concentration for half-maximal inhibition (IC50) was below 10 nM. On to `Cc1sc(C(=O)c2cncnc2N[C@@H]2C[C@H](COS(N)(=O)=O)[C@@H](O)C2)cc1[S@+]([O-])c1cccc(C(F)(F)F)c1` [US10780090, Compound I-69], for which the IC50 was below 10 nM. In the case of `CN1Cc2ccccc2[C@@H]1c1csc(C(=O)c2cncnc2N[C@@H]2C[C@H](COS(N)(=O)=O)[C@@H](O)C2)c1` [US10780090, Compound I-308] it was below 10 nM. For `C[C@@]1(c2csc(C(=O)c3cncnc3N[C@@H]3C[C@H](COS(N)(=O)=O)[C@@H](O)C3)c2)NCCc2ccccc21` [US10780090, Compound I-318], the IC50 was below 10 nM. In the case of `CC(C)(C)OC(=O)N1CCc2ccc(Cl)cc2[C@@H]1c1csc(C(=O)c2cncnc2N[C@@H]2C[C@H](COS(N)(=O)=O)[C@@H](O)C2)c1` [US10780090, Compound I-334] it was 100 to 1000 nM; in that of `Cc1sc(C(=O)c2cncnc2N[C@@H]2C[C@H](COS(N)(=O)=O)[C@@H](O)C2)cc1[C@@H]1OCCc2ccc(C#N)cc21` [US10780090, Compound I-313], below 10 nM. In the case of `CC(C)(C)OC(=O)N1CCc2ccc(Cl)cc2[C@@H]1c1cc(C(=O)c2cncnc2N[C@@H]2C[C@H](COS(N)(=O)=O)[C@@H](O)C2)sc1Cl` [US10780090, Compound I-336] it was 100 to 1000 nM; in that of `CN1Cc2ccccc2[C@@H]1c1cc(C(=O)c2cncnc2N[C@@H]2C[C@H](COS(N)(=O)=O)[C@@H](O)C2)sc1Cl` [US10780090, Compound I-304], below 10 nM; in that of `Cc1sc(C(=O)c2cncnc2N[C@@H]2C[C@H](COS(N)(=O)=O)[C@@H](O)C2)cc1[C@@H]1OCC(F)(F)c2ccc(Cl)cc21` [US10780090, Compound I-288], below 10 nM.

Take `CN(c1ncncc1C(=O)c1cc([C@@H]2OCCc3ccc(Cl)cc32)c(CO)s1)[C@@H]1C[C@H](COS(N)(=O)=O)[C@@H](O)C1` [US10780090, Compound I-366]: the IC50 was below 10 nM. `NS(=O)(=O)OC[C@H]1C[C@@H](Nc2ncncc2C(=O)c2cc(Cc3cccc(Br)c3)c(Cl)s2)C[C@@H]1O` [US10780090, Compound I-112]: the IC50 is below 10 nM. The compound `Cc1sc(C(=O)c2cncnc2N[C@@H]2C[C@H](COS(N)(=O)=O)[C@@H](O)C2)cc1[C@@H]1OCC(F)(F)c2ncccc21` [US10780090, Compound I-331] had an IC50 of 100 to 1000 nM.

The IC50 is the point on the concentration scale where inhibition reaches its midpoint.

These data come from BindingDB's records for patent US10780090 (Millennium Pharmaceuticals, Inc., 2020).
